The test system of test [1] is Bacillus coagulans MTCC 25235. Kind of test: MIC of antibiotics by broth microdilution (CLSI), antibiotic resistance pattern. Type of test: cell-based. The procedure: (§1) MIC was determined as per the guidelines of Clinical and Laboratory Standards Institute (CLSI 2012). Bacillus coagulans MTCC 25235 suspensions were prepared by suspending 18 h grown bacterial culture in sterile normal saline (0.89% NaCl wt/vol; Himedia, Mumbai India). The turbidity of the bacterial suspension was adjusted to 0.5 McFarland standards (equivalent to 1.5×10^8 colony forming units (CFU)/ml). The antibiotics stock solutions were prepared as per CLSI guidelines and 2-fold serial dilutions were prepared in broth medium (glucose yeast extract acetate broth [GYEA, HiMedia, Mumbai India for Bacillus coagulans MTCC 25235 and Mueller Hinton Broth [MHB, Difco Laboratories, Detroit, Mich USA] for S. aureus) in 100 μl volume in 96-well U bottom microtiter plates (BD Labware, NJ USA). The above-mentioned bacterial suspension was further diluted in the MHB and 100 μl volume of this diluted inoculum was added to each well of the plate resulting in the final inoculum of 5×10^5 CFU/ml in the well and the final concentration of antibiotics ranged from 0.0078 to 4 μg/ml. S. aureus ATCC 6538 was used as reference culture in this study. The plates were incubated at 37° C. for 24 h and were visually read for the absence or presence of turbidity. The minimum concentration of the compound concentration showing no turbidity was recorded as MIC.
(Broth dilution looks for growth in wells or tubes with falling amounts of substance.)

The next test concerns S. aureus ATCC 6538. As to the kind of experiment: MIC of antibiotics by broth microdilution (CLSI), reference culture. Type of test: cell-based. On the procedure:
as §1

Setting [2] is: Heyndrickxia coagulans, MTCC25235, against Bacillus coagulans MTCC 25235, GYEA broth, 37° C., 24 h, read-out: MIC.
[3] abbreviates: Staphylococcus aureus, ATCC6538, against S. aureus ATCC 6538, MHB, 37° C., 24 h, read-out: MIC.
[4] abbreviates: Heyndrickxia coagulans, MTCC25235, 24 h.
Setting [5] is: Staphylococcus aureus, ATCC6538, 24 h.
Setting [6] is: against Bacillus coagulans MTCC 25235, GYEA broth, 37° C., 24 h.
Where [7] appears, read: against S. aureus ATCC 6538, MHB, 37° C., 24 h.

Structures can show the parent of a compound that is named as a salt. Where two headings read alike, the source gives them in different places.

In the case of `CC1(C)S[C@@H]2[C@H](NC(=O)[C@H](N)c3ccccc3)C(=O)N2[C@H]1C(=O)O` [Ampicillin sodium salt], the MIC in test [1] (setting [2]) worked out at 0.125 µg/mL; in the test with S. aureus ATCC 6538 (setting [3]), 0.031 µg/mL.
As to `O=C(N[C@H](CO)[C@H](O)c1ccc([N+](=O)[O-])cc1)C(Cl)Cl` [Chloramphenicol], the MIC in test [1] (setting [2]) was determined as 0.031 µg/mL; with S. aureus ATCC 6538 (setting [3]) it was 2 µg/mL.
`CCC[C@@H]1C[C@@H](C(=O)N[C@@H]([C@H]2O[C@H](SC)[C@H](O)[C@@H](O)[C@H]2O)[C@H](C)Cl)N(C)C1` [Clindamycin hydrochloride]: the MIC in test [1] (setting [2]) is 0.25 µg/mL; in the test with S. aureus ATCC 6538 (setting [3]), 0.062 µg/mL.
As for `CC[C@H]1OC(=O)[C@H](C)[C@@H](O[C@H]2C[C@@](C)(OC)[C@@H](O)[C@H](C)O2)[C@H](C)[C@@H](O[C@@H]2O[C@H](C)C[C@H](N(C)C)[C@H]2O)[C@](C)(O)C[C@@H](C)C(=O)[C@H](C)[C@@H](O)[C@]1(C)O` [Erythromycin], the MIC (in test [1] (setting [4]); with S. aureus ATCC 6538 (setting [5])) was 0.125 µg/mL throughout.
As for `[H]/N=C(/N)N[C@H]1[C@H](O)[C@@H](O)[C@H](O[C@@H]2O[C@@H](C)[C@](O)(C=O)[C@H]2O[C@@H]2O[C@@H](CO)[C@H](O)[C@@H](O)[C@@H]2NC)[C@@H](N/C(N)=N\[H])[C@@H]1O` [Streptomycin sulphate], the MIC in test [1] (setting [2]) is 0.062 µg/mL; with S. aureus ATCC 6538 (setting [3]), 4 µg/mL.
With `CN(C)[C@@H]1C(O)=C(C(N)=O)C(=O)[C@@]2(O)C(O)=C3C(=O)c4c(O)cccc4[C@@](C)(O)[C@H]3C[C@@H]12` [Tetracycline hydrochloride], the MIC in test [1] (setting [2]) is 0.03 µg/mL; with S. aureus ATCC 6538 (setting [3]) it was 0.062 µg/mL.
With `CN[C@H](CC(C)C)C(=O)N[C@H]1C(=O)N[C@@H](CC(N)=O)C(=O)N[C@H]2C(=O)N[C@H]3C(=O)N[C@H](C(=O)N[C@H](C(=O)O)c4cc(O)cc(O)c4-c4cc3ccc4O)[C@H](O)c3ccc(c(Cl)c3)Oc3cc2cc(c3O[C@@H]2O[C@H](CO)[C@@H](O)[C@H](O)[C@H]2O[C@H]2C[C@](C)(N)[C@H](O)[C@H](C)O2)Oc2ccc(cc2Cl)[C@H]1O` [Vancomycin hydrochloride], the MIC worked out at 0.25 µg/mL in test [1] (setting [4]) and 0.5 µg/mL in the test with S. aureus ATCC 6538 (setting [5]).
For Gentamicin sulphate, the MIC in test [1] (setting [6]) came out at 0.06 µg/mL; with S. aureus ATCC 6538 (setting [7]), 0.25 µg/mL.
For Kanamycin sulphate, the MIC in test [1] (setting [6]) is 0.062 µg/mL; with S. aureus ATCC 6538 (setting [7]), 7.0 µg/mL.

As usually defined, the MIC is the smallest concentration in the dilution series that meets the test's criterion for growth inhibition.

The record behind these values is patent publication US12257274B2, “Fructophilic lactic acid producing bacteria” (priority 2019, dated 2025).
